Columns and labels:
[1] = Polymerization of styrene in sealed tube at 70° C; settings: for dry polymer weight: 10.0 grams styrene
Protocol: An 18 × 150 mm pyrex test tube was filled with 10.0 grams of distilled styrene monomer and 0.121 grams (8.4 × 10^^-4 moles) of 2-t-butylazo-2-hydroxypropane. The test tube was flushed out with nitrogen and placed in a constant temperature bath thermostatted at 70° C. After 4.0 hours at 70° C, the tube was removed and quickly chilled to -20° F to prevent post polymerization. The sealed tube was then broken and the polymer dissolved in 1000 ml of methanol to precipitate the polystyrene. The polymer was separated by filtration and dried in an oven at 50°-55° C. The dry polymer weighed 3.4 grams (34% conversion). The rate of conversion of monomer to polymer was 8.5% per hour.
An 18 × 150 mm pyrex test tube was filled with 10.0 grams of distilled styrene monomer and 0.134 grams (8.5 × 10^^-4 moles) of 2-t-butylazo-2-hydroxybutane from Example V. The test tube was flushed out with nitrogen and placed in a constant temperature thermostatted bath at 70° C. After 6.0 hours at 70° C, the tube was removed and quickly chilled to -20° F to prevent post polymerization. The sealed tube was then broken and the polymer dissolved in 1000 ml of methanol to precipitate the polystyrene. The polymer was separated by filtration and dried in an oven at 50°-55° C. The dry polymer weighed 4.8 grams (48% conversion). The rate of conversion of monomer to polymer was 8.0% per hour.

[2] = Curing of unsaturated polyester-styrene resin
Protocol: An unsaturated polyester resin was made by reacting maleic anhydride (1.0 mole), phthalic anhydride (1.0 mole), and propylene glycol (2.2 moles) until an acid number of 45-50 was obtained. To this was added hydroquinone at a 0.013% concentration. Seven parts of this unsaturated polyester was diluted with 3 parts of monomeric styrene to obtain a homogeneous blend having a viscosity of 13.08 poise and a specific gravity of 1.14.
To 20 grams of this blend was added 0.128 gram of alpha-(tert.-butylazo)isobutyronitrile and the resultant composition placed in a constant temperature bath at 212° F. (100° C.). […] At 180° F. (82.2° C.), a peak exotherm of 381° F. (193.9° C.) was obtained in 13.3 minutes. The resultant cured materials were very hard.
The procedure of Example III was used at 212° F. (100° C.) and 240° F. (115.6° C.) where peak exotherms of 414° F. (212.2° C.) and 440° F. (226.7° C.) were obtained after 10.0 and 5.3 minutes respectively using 0.2 gram of the 1-tert.-butylazo-1-cyanocyclohexane. The resultant cured resins were very hard.
The curing procedure and resin are described in Example III.

[3] = for temperature at which it begins to evolve nitrogen: onset; for gas/nitrogen evolution or decomposition: room temperature or on melting
[4] = Thermal decomposition half-life; format: physicochemical; settings: gas evolution technique, trichlorobenzene solvent
Protocol: It produces 179 cc. of gas per gram at 110° C. The following half-life data have been determined:
The following half-life data have been determined by gas evolution technique using trichlorobenzene as the solvent: […]

[5] = Oxidation of iodide ion to free iodine
[6] = 180° F. (82.2° C.), loading not given
[7] = 212° F. (100° C.), loading not given
[8] = 180° F. (82.2° C.), 1.0 weight per cent
[9] = 212° F. (100° C.), 1.0 weight per cent
[10] = 240° F. (115.6° C.), 1.0 weight per cent
[11] = 265° F. (129.4° C.), 1.0 weight per cent

CCC(C)(O)N=NC(C)(C)C (stereo not shown) [2-t-butylazo-2-hydroxybutane]
rate of conversion of monomer to polymer ([1]; 6.0 hours): 8.0 % per hour
conversion ([1]; 6.0 hours, 8.5 × 10^^-4 moles in 10.0 grams styrene): 48%
dry polymer weight ([1]; 6.0 hours): 4.8 grams

CC(C)(C)N=NC(C)(C#N)C(C)(C)C (stereo not shown) [Example IX, 2-tert.-butylazo-2-cyano-3,3-dimethylbutane]
hardness of cured resin [2]: very hard
peak exotherm [2, 6]: 388 ° F.
time to peak exotherm [2, 6]: 10.4 min
peak exotherm [2, 7]: 430 ° F.
time to peak exotherm [2, 7]: 4.9 min
temperature at which it begins to evolve nitrogen [3]: 95 °C

CCCNC(C)(CC(C)C)N=NC(C)(C)C (stereo not shown) [Example LX, 2-t-Butylazo-2-(propylamino)-4-methylpentane]
gas/nitrogen evolution or decomposition [3]: slowly evolves gas at room temperature

CC(C)CC(C#N)(CC(C)C)N=NC(C)(C)C [Example VII, 4-tert.-butylazo-4-cyano-2,6-dimethylheptane]
hardness of cured resin [2]: very hard
peak exotherm [2, 8]: 371 ° F.
time to peak exotherm [2, 8]: 2.8 min
temperature at which it begins to evolve nitrogen [3]: 70 °C

CC1CC(C)(C)CC(C#N)(N=NC(C)(C)C)C1 (stereo not shown) [Example VIII, 1-tert.-butylazo-1-cyano-3,3,5-trimethylcyclohexane]
hardness of cured resin [2]: very hard
peak exotherm [2, 8]: 384 ° F.
time to peak exotherm [2, 8]: 9.4 min
temperature at which it begins to evolve nitrogen [3]: 100 °C

CC(C)(C#N)N=NC(C)(C)c1ccccc1 [Example XI, Alpha-(tert.-cumylazo)isobutyronitrile]
hardness of cured resin [2]: very hard
peak exotherm [2, 8]: 378 ° F.
time to peak exotherm [2, 8]: 1.3 min
temperature at which it begins to evolve nitrogen [3]: 55 °C

CC(C)(C)N=NC(C)(C#N)C1CC1 (stereo not drawn) [Example XII, Alpha-tert-butylazo-alpha-cyclopropylpropionitrile]
hardness of cured resin [2]: very hard
peak exotherm [2, 6]: 403 ° F.
time to peak exotherm [2, 6]: 3.3 min
peak exotherm [2, 7]: 420 ° F.
time to peak exotherm [2, 7]: 2.1 min
temperature at which it begins to evolve nitrogen [3]: 75 °C

CC(C)(C)N=NC(N)=O [Example XIII, tert.-butylazoformamide]
t 1/2 ([4]; 110° C): 5.73 h
t 1/2 ([4]; 120° C): 3.00 h
t 1/2 ([4]; 130° C): 0.87 h
t 1/2 ([4]; 150° C): 0.14 h
hardness of cured resin [2]: very hard
peak exotherm [2, 9]: 407 ° F.
time to peak exotherm [2, 9]: 7.1 min
peak exotherm [2, 10]: 430 ° F.
time to peak exotherm [2, 10]: 5.9 min
peak exotherm [2, 11]: 438 ° F.
time to peak exotherm [2, 11]: 4.5 min

CC(C)OC(=O)N=NC(C)(C)c1ccccc1 [Example XVIII B, Isopropyl tert.-cumylazocarboxylate]
temperature at which it evolves nitrogen [3]: 80 °C

CC(C)(C)N=NC(=O)c1ccccc1 [Example XX, Benzoyl tert.-butyldiimide]
hardness of cured resin [2]: hard
peak exotherm [2, 8]: 233 ° F.
time to peak exotherm [2, 8]: 10.0 min
temperature at which it evolves nitrogen [3]: 25 °C

CC(C)(C)N=NC(C)(C)C(N)=O [Example XXV, 2-t-butylazo-2-carbamylpropane]
peak exotherm [2, 10]: 442 ° F.
time to peak exotherm [2, 10]: 5.7 min
temperature at which it evolves nitrogen [3]: above 120 °C

CC(C)CC(C)(N=NC(C)(C)C)SC#N (stereo not shown) [LI, 2-t-Butylazo-2-thiocyanato-4-methylpentane]
Barcol Hardness ([2]; bath 115° C.): 45
Minutes to Peak Exotherm ([2]; bath 115° C.): 3.4 min
peak exotherm ([2]; bath 115° C.): 438 ° F

CC(C)CC(C)(N=NC(C)(C)C)OC#N (stereo not shown) [LIII, 2-t-Butylazo-2-cyanato-4-methylpentane]
Barcol Hardness ([2]; bath 115° C.): 45
Minutes to Peak Exotherm ([2]; bath 115° C.): 3.8 min
peak exotherm ([2]; bath 115° C.): 412 ° F

CC(C)CC(C)(N=NC(C)(C)C)OC(C)(C)C (stereo not shown) [LIV, 2-t-Butylazo-2-t-butoxy-4-methylpentane]
Barcol Hardness ([2]; bath 115° C.): 20
Minutes to Peak Exotherm ([2]; bath 115° C.): 2.8 min
peak exotherm ([2]; bath 115° C.): 358 ° F

CC(C)CC(C)(N=NC(C)(C)C)OOC(C)(CC(C)C)N=NC(C)(C)C (stereo not shown) [LVIII, Di[1-(t-butylazo)-1,3-dimethylbutyl] Peroxide]
gas/nitrogen evolution or decomposition [3]: began to gas rapidly upon reaching room temperature

CC(C)CC(C)(N=NC(C)(C)C)NNC(C)(C)C (stereo not shown) [LXIX, 2-t-Butylazo-2-t-butylhydrazo-4-methylpentane]
Barcol Hardness ([2]; bath 82° C.): 40
Minutes to Peak Exotherm ([2]; bath 82° C.): 1.4 min
peak exotherm ([2]; bath 82° C.): 275 ° F
gas/nitrogen evolution or decomposition [3]: evolves nitrogen at room temperature

CC(C)CC(C)(N=NC(C)(C)C)OOC(C)(C)CCC(C)(C)OOC(C)(CC(C)C)N=NC(C)(C)C (stereo not shown) [LXV, 2,2,5,8,8,11,11,14,17,17-decamethyl-5,14-diisobutyl-Δ^3,15-3,4,15,16-tetraaza-6,7,12,13-tetraoxaoctadecadiene]
temperature at which it evolves nitrogen [3]: 30 °C

CC(C)CC(C)(N=NC(C)(C)C)NNc1ccccc1 (stereo not shown) [LXVIII, 2-t-Butylazo-2-phenylhydrazo-4-methylpentane]
gas/nitrogen evolution or decomposition [3]: decomposes rapidly at room temperature

CC(C)(C)N=NC(C)(C)O [LXXII, 2-t-Butylazo-2-hydroxypropane]
rate of conversion of monomer to polymer ([1]; 4.0 hours): 8.5 % per hour
conversion ([1]; 4.0 hours, 8.4 × 10^^-4 moles in 10.0 grams styrene): 34%
dry polymer weight ([1]; 4.0 hours): 3.4 grams

CNC(=O)N=NC(C)(C)C [XIV, tert.-butylazo-N-methylformamide]
hardness of cured resin [2]: very hard
peak exotherm [2, 11]: 428 ° F.
time to peak exotherm [2, 11]: 17.1 min

CC(C)CC(C)(N=NC(C)(C)C)N=[N+]=[N-] (stereo not shown) [XLII, 2-t-butylazo-2-azido-4-methylpentane]
Barcol Hardness ([2]; bath 100° C.): 40
Minutes to Peak Exotherm ([2]; bath 100° C.): 5.3 min
peak exotherm ([2]; bath 100° C.): 418 ° F

CN(C)C(=O)N=NC(C)(C)C [XV, tert.-butylazo-N,N-dimethylformamide]
oxidizing of iodide ion [5]: oxidized iodide ion to free iodine

COC(=O)CNC(=O)N=NC(C)(C)C [XVI, tert.-butylazo-N-carbmethoxymethylformamide]
oxidizing of iodide ion [5]: oxidized iodide ion to free iodine
hardness of cured resin [2]: very hard
peak exotherm [2, 10]: 356 ° F.
time to peak exotherm [2, 10]: 15.8 min
peak exotherm [2, 11]: 484 ° F.
time to peak exotherm [2, 11]: 5.1 min
temperature at which it begins to evolve nitrogen [3]: 140 °C

CC(C)(C)N=NC(=O)NCC(=O)O [XVII, tert.-butylazo-N-carboxymethylformamide]
oxidizing of iodide ion [5]: oxidized iodide ion to free iodine
temperature at which it begins to evolve nitrogen [3]: 60 °C

CC(C)(C)N=Nc1nc(N=NC(C)(C)C)nc(N=NC(C)(C)C)n1 [XXI, 2,4,6-Tri-(tert.-butylazo)-1,3,5-triazine]
oxidizing of iodide ion [5]: oxidized iodide ion to free iodine
temperature at which it begins to evolve nitrogen [3]: 102 °C

C=C(C)N=NC(C)(C)C [XXII, 2(-tert.-butylazo)propene]
gas/nitrogen evolution or decomposition [3]: evolves nitrogen at room temperature

CC(C)(C)N=NC1(C(N)=O)CCCCC1 [XXIV, 1-tert. butylazo-1-carbamylcyclohexane]
peak exotherm [2, 10]: 444 ° F.
time to peak exotherm [2, 10]: 6.8 min
temperature at which it evolves nitrogen [3]: above 120 °C

COC(C)(N=NC(C)(C)C)c1ccccc1 (stereo not shown) [XXXIX, 1-t-butylazo-1-methoxy-1-phenylethane]
Barcol Hardness ([2]; bath 82° C.): 40
Minutes to Peak Exotherm ([2]; bath 82° C.): 6.6 min
peak exotherm ([2]; bath 82° C.): 371 ° F

COC(C)(CC(C)C)N=NC(C)(C)C (stereo not shown) [XXXVI, 2-t-butylazo-2-methoxy-4-methylpentane]
Barcol Hardness ([2]; bath 115° C.): 40
Minutes to Peak Exotherm ([2]; bath 115° C.): 7.2 min
peak exotherm ([2]; bath 115° C.): 400 ° F

Source: patent US4007165A (priority 1974, dated 1977)
